Here are results for 71 molecules from PubChem BioAssay AID179 (DTP/NCI, 2004).

In this experiment the test system is CEM cells HIV-1 protection, formazan growth assay. In words: NCI AIDS Antiviral Assay. Conditions: for IC50: measured here: growth of uninfected CEM cells. The gist of the method:
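Human CEM cells, uninfected and HIV-1-infected, exposed to five drug concentrations; growth measured by soluble formazan assay and scored as percent protection from infection, with protecting compounds retested.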

Where “and” joins values, the source holds several entries; their conditions need not be identical. Equal entries are not always repeated. Calls of active or inactive are those of the source.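 The calls were made as follows: active = compounds giving half or more protection of infected cells from virus-caused growth loss, again on retest; inactive = the rest.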

By EC50 is commonly meant the concentration at which the effect is half-maximal. Usually IC50 stands for the point on the concentration scale where inhibition reaches its midpoint. Low values mean greater potency, high ones weaker potency. For `c1ccc([P+](CCCCCC[P+](c2ccccc2)(c2ccccc2)c2ccccc2)(c2ccccc2)c2ccccc2)cc1`, the EC50 is above 200 µM; the IC50 was 5.37 µM and 7.24 µM.

Take `O=c1n(-c2ccccc2)c(=O)n2n1C1C3C4C3C2C2(F)C4C12` (stereo not given): the EC50 was above 200 µM and the IC50 was above 200 µM.

Regarding `CC(CNc1ccc(Cl)cc1)(CNc1ccc(Cl)cc1)[N+](=O)[O-]`, the EC50 is above 14.8 µM and the 50% inhibitory concentration (IC50) is above 14.8 µM.

For `NC(=O)c1ncn(CCN2CCN(C(=O)NCCCCCCNC(=O)N3CCN(CCn4cnc(C(N)=O)c4N)CC3)CC2)c1N`, the outcome was inactive.

With `CCOC(=O)c1nc2ccc(C(F)(F)F)cc2nc1NCc1ccc(OC)cc1`, the EC50 was above 200 µM and the IC50 amounted to 38 µM.

For `CC(=O)c1sc(Nc2ccc(Cl)c(Cl)c2)nc1C`, the result was inactive.

Take `CC1C2C1C1C3NN=CC3C2n2c(=O)n(-c3ccccc3)c(=O)n21` (stereo not given): the EC50 was above 200 µM and the IC50 is above 200 µM.

With `C/C(CCn1[nH]c(=O)ccc1=O)=N\OCCCc1ccccc1`, the EC50 is above 417 µM and the IC50 is above 417 µM.

Turning to `COc1ccc(/C(C#N)=C/c2cccc(N)c2)cc1`, the EC50 was above 200 µM and the IC50 came out at 25.1 µM.

`O=[N+]([O-])c1cccc(/C=N/Nc2ccc(S(=O)(=O)O)cc2)c1`: the EC50 was above 724 µM and the 50% inhibitory concentration (IC50) came to 646 µM.

Regarding `c1ccc2[nH]c(CSc3nc4ccccc4[nH]3)nc2c1`, the EC50 is above 200 µM and the IC50 was above 200 µM.

On to `c1ccc(Nc2nnnn2-c2ccccc2)cc1`, for which the EC50 was above 200 µM and the IC50 is above 200 µM.

As for `Cc1ccc(C(=O)C2C=C(c3ccc(C)cc3)SC3C=CCC32)cc1` (stereo not given), the EC50 was above 200 µM and the half-inhibitory concentration (IC50) worked out at 14.8 µM.

With `COc1cc2c(oc(=O)c3cc4cc([Si](C)(C)C)oc4c(OC)c32)c2cccc(O)c12`, the EC50 is above 1.2 µM and the IC50 is above 1.2 µM.

In the case of `COc1cc2c(cc1O)C1Cc3cc(OC)c(OC)cc3C(C2)N1C` (stereo not given), the EC50 was above 39.8 µM and the IC50 is above 39.8 µM.

As to `CCCCNC(C)(C)C(SSSC(C)=O)c1ccco1` (stereo not given), the EC50 was above 200 µM and the IC50 is 56.2 µM.

For the molecule `COc1ccc(-c2nc(N3CCCC3)no2)cc1`, the EC50 was above 200 µM and the IC50 amounted to 195 µM.

With `COc1ccc(/C=C/C(=O)c2c(-c3ccccc3)nn(C)c(=O)c2N2CC2C)cc1` (stereo not given), the EC50 was above 64.6 µM and the half-maximal inhibitory concentration (IC50) was determined as 22.4 µM.

`Cc1cn(C2CC(N=[N+]=[N-])C(COP(=O)(OCC(=O)c3ccco3)OCC(=O)c3ccco3)O2)c(=O)[nH]c1=O` (stereo not given): the EC50 is 0.00457 µM and the IC50 worked out at 2 µM.

Take `C/C=C1\CN(C)C2Cc3c([nH]c4ccccc34)[C@H](c3c(OC)ccc4c5c([nH]c34)C3(C(=O)OC)CC4CC(CC)C3N(CC5)C4)CC1C2C(=O)OC` (stereo not given in full): the outcome was inactive.

With `C=CCOc1ccc(C2c3c([nH][nH]c3=O)CC(O)(OCC)C2C(=O)OCC)cc1OC` (stereo not given), the EC50 was above 200 µM and the IC50 is above 200 µM.

Take `C=CC1(C)CCC2C(C)(C)C(Br)CC[C@]2(C)O1` (stereo not given in full): the result was inactive.

As for `Cc1cccc2c(N)c3cccc(C(=O)NCCCNCCN)c3nc12`, the EC50 was above 0.2 µM and the IC50 amounted to 0.12 µM.

Turning to `Cc1cc(Cl)ccc1N1C(=O)C(=O)C(c2nc3ccccc3s2)C(=O)C1=O`, the EC50 is above 91.2 µM and the IC50 is above 91.2 µM.

In the case of `CC12CCC([C@H](C(O)C3CCCCC3)C1=O)C2(C)C` (stereo not given in full), the EC50 is above 200 µM and the 50% inhibitory concentration (IC50) came out at 52.5 µM.

`O=[N+]([O-])C(Cl)=C/C(=C(\Cl)SCc1ccccc1)[N+](=O)[O-]`: the EC50 was above 200 µM and the IC50 came to 12 µM.

Turning to `Cc1cc(C)nc(NS(=O)(=O)c2ccc(NC(=O)c3cccc4c(Nc5ccc(S(=O)(=O)Nc6nc(C)cc(C)n6)cc5)c5ccc(Cl)cc5nc34)cc2)n1`, the EC50 was above 85.1 µM and the IC50 was above 85.1 µM.

Turning to `c1ccc2c(c1)C1CCC2c2ccccc21`, the EC50 was above 200 µM and the IC50 is above 200 µM.

On to `CCOC(=O)c1[nH]n(-c2ccccc2)c(=O)c1C=NC(C)=S`, for which the EC50 is above 200 µM and the IC50 was above 100 µM.

On to `c1ccc2sc(CN(Cc3nc4ccccc4s3)Cc3nc4ccccc4s3)nc2c1`, for which the EC50 is above 40.7 µM and the IC50 was above 40.7 µM.

`O=C(NC(=Nc1ccccc1)SCSC(=Nc1ccccc1)NC(=O)c1ccc(F)cc1)c1ccc(F)cc1`: the EC50 was above 200 µM and the IC50 is above 200 µM.

As for `O=C1CCC2(c3ccc(Cl)cc3)Nc3ncncc3N12` (stereo not given), the EC50 was above 871 µM and the IC50 is 178 µM.

As for `CCCC/C=C(/CCCNCCc1ccccc1)[Si](C)(C)C`, the EC50 is above 81.3 µM and the IC50 is above 81.3 µM.

As to `Cc1ccc(/C=C2\N=C(N3CCCC(CO)C3)NC2=O)cc1` (stereo not given), the EC50 is above 200 µM and the IC50 is above 200 µM.

Consider `CCOC(=O)C1=CNC(C(=O)OCC)C1c1cccn1-c1ccc(Cl)cc1[N+](=O)[O-]` (stereo not given), for which the EC50 is above 200 µM and the IC50 came out at 26.3 µM.

`CC[C@@H](C)C(=O)O[C@@H]1CC[C@]2(CO2)C2(COC(C)=O)C(OC(C)=O)CC(C)[C@](C)(C[C@H](O)C3=CC(=O)OC3)[C@@H]12` (stereo not given in full): the outcome was inactive.

On to `CN(C)CN1C(=O)S/C(=C2\C(=O)N(C)c3ccc(Br)cc32)C1=O`, for which the EC50 was above 200 µM and the 50% inhibitory concentration (IC50) was determined as 24 µM.

Take `Cc1cccc(C(C)(C)C)c1NC(=O)/C(Cc1nc2ccc([N+](=O)[O-])cc2[nH]c1=O)=N/NC(=O)C[N+](C)(C)C`: the EC50 is above 437 µM and the IC50 was 60.3 µM.

As for `Cc1csc2c(P(=O)(OC(C)C)OC(C)C)c(-c3ccccc3)cn12`, the EC50 was above 200 µM and the IC50 was 33.1 µM.

Take `c1cc2c(c(NC3=NCCO3)c1)CCC2`: the EC50 was above 200 µM and the IC50 turned out to be 112 µM.

For `OC1C(O)C(O)C2(CO2)C(O)C1O` (stereo not given), the EC50 was above 200 µM and the IC50 was above 200 µM.

Regarding `N#CC1=C(N)CCC(C#N)(c2ccccc2)C1` (stereo not given), the EC50 was above 200 µM and the IC50 is above 200 µM.

On to `CC1CN=C(Cc2ccc(NC(=O)c3ccc(C(=O)Nc4ccc(CC5=NCC(C)N5)cc4)cc3)cc2)N1` (stereo not given), for which the EC50 is above 200 µM and the IC50 was 110 µM.

On to `Cc1cc(=O)oc2cc(SC(=O)N(C)C)ccc12`, for which the EC50 was above 200 µM and the IC50 was above 200 µM.

As to `COC1(O)C(=O)c2ccccc2OC1(OC)c1ccc(Cl)cc1` (stereo not given), the EC50 is above 200 µM and the IC50 turned out to be 4.57 µM.

Regarding `Cc1cc(S(=O)(=O)Nc2n[nH]c(-c3ccccn3)n2)c(S)cc1Cl`, the EC50 is above 200 µM and the concentration for half-maximal inhibition (IC50) turned out to be 4.17 µM.

`COC(=O)C1Cc2cc3c(cc2C1=O)CCCC3` (stereo not given): the EC50 was above 1000 µM and the IC50 is 66.1 µM.

With `O=C(OCC1OC2OC(c3ccccc3)(n3ccc4c([N+](=O)[O-])ccnc43)OC2C1OC(=O)c1ccccc1)c1ccccc1` (stereo not given), the EC50 was above 200 µM and the IC50 was 145 µM.

As for `Cc1nn(-c2ccccc2)c2nc3ccc(Cl)cc3c(-c3ccccc3)c12`, the EC50 was above 200 µM and the IC50 is above 200 µM.

Regarding `O=C1CC2(CCNCC2)C(=O)N1N1CCOCC1`, the EC50 is above 200 µM and the IC50 was above 200 µM.

Consider `CC(O)C(NCNC(=O)C1=C(O)C2(O)C(=O)C3=C(O)c4c(O)cccc4C(C)(O)C3CC2C(N(C)C)C1=O)C(=O)O` (stereo not given), for which the EC50 was above 37.2 µM and the IC50 was above 37.2 µM.

Regarding `COc1nc(N)c(N(C(C)=O)C(C)=O)c(=O)[nH]1`, the outcome was inactive.

`c1ccc2c3c(ccc2c1)CN1CCCCC1C3` (stereo not given): the EC50 was above 676 µM and the IC50 was 49 µM.

Take `CC(=O)Nc1ccc2oc(=O)ccc2c1`: the EC50 was above 1230 µM and the IC50 stood at 562 µM.

As to `CSc1nc2c(c(N(C)C)n1)C=Nn1c(nc3ccccc31)S2`, the EC50 was 9.77 µM and the concentration for half-maximal inhibition (IC50) stood at 97.7 µM.

Regarding `O=S(O)CCCSSc1ccccc1`, the outcome was inactive.

Regarding `NC(N)=N/N=C\CC(O)CO` (stereo not given), the EC50 is above 200 µM and the concentration for half-maximal inhibition (IC50) was above 200 µM.

Turning to `O=C1C(C(c2ccc([N+](=O)[O-])cc2)N2CCOCC2)=C(O)C(c2ccccc2)N1c1ccccc1` (stereo not given), the EC50 is above 100 µM and the IC50 was determined as 24.5 µM.

Regarding `Clc1ccc(OCCSCCCCCCCCCCSCCOc2ccc(Cl)cc2)cc1`, the EC50 was above 7.24 µM and the half-inhibitory concentration (IC50) was above 7.24 µM.

For `Cn1c(=O)c(C(c2ccccc2)c2c(O)c3ccccc3n(C)c2=O)c(O)c2ccccc21`, the EC50 is above 22.9 µM and the IC50 was above 22.9 µM.

For the molecule `COc1ccc(C(c2ccc3c(c2)OCO3)N2C(=O)CCC2C(=O)O)cc1` (stereo not given), the EC50 is above 200 µM and the IC50 was above 200 µM.

As to `O=C(OCCN1CCCC1)c1cc2ccccc2n1-c1ccccc1`, the EC50 is above 200 µM and the IC50 was 46.8 µM.

`CC(=O)OC12CCCCC(CCCC1)O2`: the EC50 was above 200 µM and the IC50 was above 200 µM.

`CC1(C)C(=NN=C(N)N)C(C)(C)C1=NN=C(N)N`: the EC50 was above 50.1 µM and the concentration for half-maximal inhibition (IC50) is above 50.1 µM.

`Cc1ccccc1C1OC(=O)c2ccccc21` (stereo not given): the EC50 is above 158 µM and the IC50 worked out at 97.7 µM.

On to `COc1ccc(CC(COS(=O)(=O)c2ccc(C)cc2)NS(=O)(=O)c2ccc(C)cc2)cc1` (stereo not given), for which the EC50 is above 200 µM and the IC50 amounted to 26.9 µM.

Take `CCNC(=S)N/N=C(/c1ccccc1)c1ccccn1`: the EC50 is above 200 µM and the IC50 was 1 µM.

For the molecule `CC1(C)OC(=O)C(=Cc2cccc(C#N)c2)C(=O)O1`, the EC50 was above 708 µM and the IC50 is 41.7 µM.

As to `Cc1cn(C2CC(N=[N+]=[N-])C(COC(=O)[C@H]3CCC4[C@@H]5CCC6=CC(=O)CC[C@]6(C)C5[C@@H](O)C[C@@]43C)O2)c(=O)[nH]c1=O` (stereo not given in full), the EC50 was 0.138 µM and the IC50 amounted to 24 µM.

Consider `CCN(CC)C(=S)SS(=O)(=O)c1ccccc1C(=O)O`, for which the EC50 is above 200 µM and the IC50 turned out to be 112 µM.

With `CCCCc1ccc(C#CC#Cc2ccc(CCCC)s2)s1`, the EC50 was above 200 µM and the IC50 is above 200 µM.
